Assay results published in patent US12157741B2, “Macrocyclic inhibitors of DYRK1A” (DANA-FARBER CANCER INSTITUTE, INC., priority 2018, dated 2024).
Like-named read-outs stand apart in the source and are kept apart here.

Assays:
Type in all cases: binding
[1] = molecular target: various enzymes (Homo sapiens, UniProt P0C1S8); settings: compound 1 uM
Description: (§1) Ambit profiling was conducted in accordance with the manufacturer's instructions.

[2] = molecular target: various enzymes (Homo sapiens, UniProt P22694); settings: compound 1 uM
Description: as §1

[3] = molecular target: various enzymes (Homo sapiens, UniProt P10721, L576P)
Description: as §1

[4] = molecular target: various enzymes (Homo sapiens, UniProt Q9P2K8, S808G)
Description: as §1

[5] = molecular target: various enzymes (Homo sapiens, UniProt Q08345); settings: compound 1 uM
Description: as §1

[6] = molecular target: various enzymes (Homo sapiens, UniProt Q9BUB5); settings: compound 1 uM
Description: as §1

[7] = molecular target: various enzymes (Homo sapiens, UniProt Q8NG66); settings: compound 1 uM
Description: as §1

[8] = molecular target: various enzymes (Homo sapiens, UniProt P23458); settings: compound 1 uM
Description: as §1

[9] = molecular target: various enzymes (Homo sapiens, UniProt Q99759); settings: compound 1 uM
Description: as §1

[10] = molecular target: various enzymes (Homo sapiens, UniProt Q9P0L2); settings: compound 1 uM
Description: as §1

[11] = molecular target: various enzymes (Homo sapiens, UniProt Q96NX5); settings: compound 1 uM
Description: as §1

[12] = molecular target: various enzymes (Homo sapiens, UniProt Q96RR4); settings: compound 1 uM
Description: as §1

[13] = molecular target: various enzymes (Homo sapiens, UniProt P41743); settings: compound 1 uM
Description: as §1

[14] = molecular target: various enzymes (Homo sapiens, UniProt Q05655); settings: compound 1 uM
Description: as §1

[15] = molecular target: various enzymes (Homo sapiens, UniProt Q8IVW4); settings: compound 1 uM
Description: as §1

[16] = molecular target: T1, various enzymes (Homo sapiens, UniProt Q8IVH8); settings: compound 1 uM
T1 sequence (Q8IVH8 1-894): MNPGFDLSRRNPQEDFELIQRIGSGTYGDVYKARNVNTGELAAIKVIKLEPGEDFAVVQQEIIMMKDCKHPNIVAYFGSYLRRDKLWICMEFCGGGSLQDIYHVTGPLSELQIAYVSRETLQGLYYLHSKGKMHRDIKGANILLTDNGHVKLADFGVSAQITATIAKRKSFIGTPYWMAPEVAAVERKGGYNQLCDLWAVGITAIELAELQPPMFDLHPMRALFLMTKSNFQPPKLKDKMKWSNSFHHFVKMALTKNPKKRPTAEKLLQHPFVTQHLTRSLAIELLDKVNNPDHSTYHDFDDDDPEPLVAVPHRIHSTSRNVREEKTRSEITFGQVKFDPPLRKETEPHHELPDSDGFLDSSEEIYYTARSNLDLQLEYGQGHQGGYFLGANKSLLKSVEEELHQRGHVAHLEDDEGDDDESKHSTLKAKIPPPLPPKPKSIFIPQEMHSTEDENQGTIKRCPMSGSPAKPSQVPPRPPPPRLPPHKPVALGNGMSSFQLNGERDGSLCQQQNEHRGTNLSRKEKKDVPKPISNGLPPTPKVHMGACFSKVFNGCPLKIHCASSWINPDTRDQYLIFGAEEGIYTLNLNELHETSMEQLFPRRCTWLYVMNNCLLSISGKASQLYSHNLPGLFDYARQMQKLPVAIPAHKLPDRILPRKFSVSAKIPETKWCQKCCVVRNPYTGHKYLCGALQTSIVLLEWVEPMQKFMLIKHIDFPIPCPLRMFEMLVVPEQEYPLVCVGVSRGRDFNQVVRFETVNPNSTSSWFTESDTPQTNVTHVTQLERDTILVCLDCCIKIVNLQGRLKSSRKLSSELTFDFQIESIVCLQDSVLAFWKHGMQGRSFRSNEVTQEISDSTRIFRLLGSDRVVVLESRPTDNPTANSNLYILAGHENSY
Description: as §1

[17] = molecular target: various enzymes (Homo sapiens, UniProt Q9BXA7); settings: compound 1 uM
Description: as §1

[18] = molecular target: various enzymes (Homo sapiens, UniProt O75116); settings: compound 1 uM
Description: as §1

[19] = molecular target: various enzymes (Homo sapiens, UniProt P54753); settings: compound 1 uM
Description: as §1

[20] = molecular target: various enzymes (Homo sapiens, UniProt P80192); settings: compound 1 uM
Description: as §1

[21] = molecular target: various enzymes (Homo sapiens, UniProt Q9UBE8); settings: compound 1 uM
Description: as §1

[22] = molecular target: various enzymes (Homo sapiens, UniProt P36888, D835V)
Description: as §1

[23] = molecular target: various enzymes (Homo sapiens, UniProt P22607, G697C)
Description: as §1

[24] = molecular target: various enzymes (Homo sapiens, UniProt P00533, G719C)
Description: as §1

[25] = molecular target: various enzymes (Homo sapiens, UniProt P15056); settings: compound 1 uM
Description: as §1

[26] = molecular target: various enzymes (Homo sapiens, UniProt P51817); settings: compound 1 uM
Description: as §1

[27] = molecular target: various enzymes (Homo sapiens, UniProt Q6ZWH5); settings: compound 1 uM
Description: as §1

[28] = molecular target: various enzymes (Homo sapiens, UniProt O96017); settings: compound 1 uM
Description: as §1

[29] = molecular target: various enzymes (Homo sapiens, UniProt Q04771); settings: compound 1 uM
Description: as §1

[30] = molecular target: various enzymes (Homo sapiens, UniProt Q9UK32); settings: compound 1 uM
Description: as §1

[31] = molecular target: various enzymes (Homo sapiens, UniProt Q13153); settings: compound 1 uM
Description: as §1

various enzymes (Homo sapiens, UniProt Q9UK32), sequence (Q9UK32 whole entry): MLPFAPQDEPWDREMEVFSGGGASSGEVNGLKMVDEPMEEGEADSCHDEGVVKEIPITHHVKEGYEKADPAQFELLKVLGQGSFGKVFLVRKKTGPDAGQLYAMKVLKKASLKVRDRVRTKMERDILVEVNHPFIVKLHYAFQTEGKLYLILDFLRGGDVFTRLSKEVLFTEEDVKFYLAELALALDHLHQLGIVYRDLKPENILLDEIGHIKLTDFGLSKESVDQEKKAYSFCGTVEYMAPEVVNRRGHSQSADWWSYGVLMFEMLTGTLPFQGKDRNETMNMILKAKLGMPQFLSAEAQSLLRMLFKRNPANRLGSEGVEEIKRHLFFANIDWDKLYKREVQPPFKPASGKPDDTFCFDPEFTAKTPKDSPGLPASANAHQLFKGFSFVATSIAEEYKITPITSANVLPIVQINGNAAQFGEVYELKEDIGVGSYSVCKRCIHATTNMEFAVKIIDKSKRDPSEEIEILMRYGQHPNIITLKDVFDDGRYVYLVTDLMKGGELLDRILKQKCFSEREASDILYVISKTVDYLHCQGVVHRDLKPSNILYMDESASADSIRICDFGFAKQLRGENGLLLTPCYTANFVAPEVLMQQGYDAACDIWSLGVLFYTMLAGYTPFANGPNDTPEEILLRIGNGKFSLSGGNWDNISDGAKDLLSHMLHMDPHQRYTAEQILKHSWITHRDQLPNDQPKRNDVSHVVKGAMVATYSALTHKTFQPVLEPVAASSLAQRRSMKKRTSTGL
various enzymes (Homo sapiens, UniProt P23458), sequence (P23458 whole entry): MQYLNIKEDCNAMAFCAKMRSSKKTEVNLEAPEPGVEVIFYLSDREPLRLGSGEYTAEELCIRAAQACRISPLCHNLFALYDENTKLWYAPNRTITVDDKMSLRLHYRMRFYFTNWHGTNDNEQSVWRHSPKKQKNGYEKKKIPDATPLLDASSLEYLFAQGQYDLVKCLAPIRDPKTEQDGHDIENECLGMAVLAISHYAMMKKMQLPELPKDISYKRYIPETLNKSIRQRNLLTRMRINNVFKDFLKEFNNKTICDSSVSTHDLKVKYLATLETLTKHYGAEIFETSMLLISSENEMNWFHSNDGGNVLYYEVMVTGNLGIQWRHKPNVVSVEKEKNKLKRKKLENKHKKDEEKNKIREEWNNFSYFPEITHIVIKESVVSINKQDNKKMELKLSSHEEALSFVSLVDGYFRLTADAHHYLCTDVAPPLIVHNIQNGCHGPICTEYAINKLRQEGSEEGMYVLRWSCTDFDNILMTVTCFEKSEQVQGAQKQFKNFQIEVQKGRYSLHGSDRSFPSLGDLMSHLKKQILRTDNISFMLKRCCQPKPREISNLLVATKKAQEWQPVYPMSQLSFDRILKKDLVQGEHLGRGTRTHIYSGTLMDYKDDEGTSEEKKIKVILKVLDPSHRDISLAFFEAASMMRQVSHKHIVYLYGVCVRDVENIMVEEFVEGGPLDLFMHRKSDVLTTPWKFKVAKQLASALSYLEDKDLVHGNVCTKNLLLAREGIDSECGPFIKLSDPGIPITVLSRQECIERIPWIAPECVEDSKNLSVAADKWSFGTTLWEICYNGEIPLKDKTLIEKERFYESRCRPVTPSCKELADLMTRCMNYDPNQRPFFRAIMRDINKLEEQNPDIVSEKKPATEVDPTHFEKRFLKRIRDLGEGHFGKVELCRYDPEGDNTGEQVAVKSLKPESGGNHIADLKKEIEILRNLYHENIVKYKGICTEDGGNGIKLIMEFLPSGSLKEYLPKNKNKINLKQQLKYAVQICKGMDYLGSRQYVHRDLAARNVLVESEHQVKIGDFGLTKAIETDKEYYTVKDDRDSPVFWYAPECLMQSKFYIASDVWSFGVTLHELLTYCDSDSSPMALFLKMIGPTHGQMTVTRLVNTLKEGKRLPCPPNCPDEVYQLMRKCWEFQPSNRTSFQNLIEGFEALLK
various enzymes (Homo sapiens, UniProt P51817), sequence (P51817 whole entry): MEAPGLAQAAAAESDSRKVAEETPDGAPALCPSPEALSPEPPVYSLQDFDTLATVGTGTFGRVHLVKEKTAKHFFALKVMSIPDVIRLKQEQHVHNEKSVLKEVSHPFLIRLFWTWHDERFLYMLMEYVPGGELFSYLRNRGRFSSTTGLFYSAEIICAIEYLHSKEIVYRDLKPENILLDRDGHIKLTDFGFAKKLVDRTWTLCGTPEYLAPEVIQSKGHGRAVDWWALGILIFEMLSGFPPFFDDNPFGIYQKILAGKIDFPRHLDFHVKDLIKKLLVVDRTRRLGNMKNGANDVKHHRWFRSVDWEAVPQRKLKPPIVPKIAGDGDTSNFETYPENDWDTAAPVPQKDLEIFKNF
various enzymes (Homo sapiens, UniProt Q96RR4), sequence (Q96RR4 whole entry): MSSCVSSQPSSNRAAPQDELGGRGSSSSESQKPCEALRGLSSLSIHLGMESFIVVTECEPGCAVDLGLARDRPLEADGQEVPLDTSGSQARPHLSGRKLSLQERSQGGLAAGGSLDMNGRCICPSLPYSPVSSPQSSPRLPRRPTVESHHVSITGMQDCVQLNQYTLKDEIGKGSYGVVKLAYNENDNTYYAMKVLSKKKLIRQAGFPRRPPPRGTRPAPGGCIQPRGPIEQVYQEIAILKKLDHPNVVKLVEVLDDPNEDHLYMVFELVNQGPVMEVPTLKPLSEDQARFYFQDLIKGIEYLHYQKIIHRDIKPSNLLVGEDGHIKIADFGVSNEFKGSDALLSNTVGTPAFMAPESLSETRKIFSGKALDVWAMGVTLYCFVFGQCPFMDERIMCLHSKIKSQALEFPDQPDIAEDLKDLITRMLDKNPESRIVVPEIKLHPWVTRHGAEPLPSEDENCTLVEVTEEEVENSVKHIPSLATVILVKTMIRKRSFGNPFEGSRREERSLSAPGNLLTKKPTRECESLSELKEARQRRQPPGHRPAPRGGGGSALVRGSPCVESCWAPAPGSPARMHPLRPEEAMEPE
various enzymes (Homo sapiens, UniProt Q13153), sequence (Q13153 whole entry): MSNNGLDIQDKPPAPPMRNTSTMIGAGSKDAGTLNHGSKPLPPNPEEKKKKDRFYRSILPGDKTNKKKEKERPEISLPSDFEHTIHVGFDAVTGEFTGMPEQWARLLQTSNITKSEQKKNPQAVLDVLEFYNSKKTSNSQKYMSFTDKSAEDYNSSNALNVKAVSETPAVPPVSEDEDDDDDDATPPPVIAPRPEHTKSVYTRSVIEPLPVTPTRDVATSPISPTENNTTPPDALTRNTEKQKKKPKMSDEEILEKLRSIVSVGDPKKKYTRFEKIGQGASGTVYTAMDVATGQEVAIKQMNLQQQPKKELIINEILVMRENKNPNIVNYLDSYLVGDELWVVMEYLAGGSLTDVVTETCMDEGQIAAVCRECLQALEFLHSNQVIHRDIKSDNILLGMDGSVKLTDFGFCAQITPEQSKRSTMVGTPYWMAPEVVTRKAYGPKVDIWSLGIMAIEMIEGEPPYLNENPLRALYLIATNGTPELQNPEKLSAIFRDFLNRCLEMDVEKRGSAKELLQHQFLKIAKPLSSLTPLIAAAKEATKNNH
various enzymes (Homo sapiens, UniProt Q9BUB5), sequence (Q9BUB5 whole entry): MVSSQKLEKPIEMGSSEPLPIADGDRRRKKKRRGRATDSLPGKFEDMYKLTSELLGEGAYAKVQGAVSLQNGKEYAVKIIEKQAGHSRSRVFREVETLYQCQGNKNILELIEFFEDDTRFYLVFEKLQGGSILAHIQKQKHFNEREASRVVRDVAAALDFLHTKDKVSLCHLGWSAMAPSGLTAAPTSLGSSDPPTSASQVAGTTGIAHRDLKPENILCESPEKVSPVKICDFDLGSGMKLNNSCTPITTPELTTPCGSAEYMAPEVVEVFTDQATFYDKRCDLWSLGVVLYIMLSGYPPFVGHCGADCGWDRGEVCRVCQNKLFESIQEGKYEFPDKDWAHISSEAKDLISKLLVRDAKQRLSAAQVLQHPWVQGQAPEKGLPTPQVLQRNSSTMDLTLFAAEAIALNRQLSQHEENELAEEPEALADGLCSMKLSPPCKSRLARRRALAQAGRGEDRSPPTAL
various enzymes (Homo sapiens, UniProt O96017), sequence (O96017 whole entry): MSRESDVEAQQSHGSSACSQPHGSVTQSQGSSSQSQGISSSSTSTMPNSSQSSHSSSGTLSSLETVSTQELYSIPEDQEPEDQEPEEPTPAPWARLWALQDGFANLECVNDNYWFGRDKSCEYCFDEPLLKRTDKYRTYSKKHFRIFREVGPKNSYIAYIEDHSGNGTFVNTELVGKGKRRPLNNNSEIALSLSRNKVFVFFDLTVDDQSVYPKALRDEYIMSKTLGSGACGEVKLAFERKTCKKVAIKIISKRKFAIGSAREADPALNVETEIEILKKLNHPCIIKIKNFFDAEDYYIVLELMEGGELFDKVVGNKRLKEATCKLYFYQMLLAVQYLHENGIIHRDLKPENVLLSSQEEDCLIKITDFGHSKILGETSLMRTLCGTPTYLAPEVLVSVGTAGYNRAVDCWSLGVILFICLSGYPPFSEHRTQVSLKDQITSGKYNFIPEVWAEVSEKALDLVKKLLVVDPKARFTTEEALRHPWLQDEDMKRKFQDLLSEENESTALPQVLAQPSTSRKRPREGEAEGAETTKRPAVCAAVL
various enzymes (Homo sapiens, UniProt P41743), sequence (P41743 whole entry): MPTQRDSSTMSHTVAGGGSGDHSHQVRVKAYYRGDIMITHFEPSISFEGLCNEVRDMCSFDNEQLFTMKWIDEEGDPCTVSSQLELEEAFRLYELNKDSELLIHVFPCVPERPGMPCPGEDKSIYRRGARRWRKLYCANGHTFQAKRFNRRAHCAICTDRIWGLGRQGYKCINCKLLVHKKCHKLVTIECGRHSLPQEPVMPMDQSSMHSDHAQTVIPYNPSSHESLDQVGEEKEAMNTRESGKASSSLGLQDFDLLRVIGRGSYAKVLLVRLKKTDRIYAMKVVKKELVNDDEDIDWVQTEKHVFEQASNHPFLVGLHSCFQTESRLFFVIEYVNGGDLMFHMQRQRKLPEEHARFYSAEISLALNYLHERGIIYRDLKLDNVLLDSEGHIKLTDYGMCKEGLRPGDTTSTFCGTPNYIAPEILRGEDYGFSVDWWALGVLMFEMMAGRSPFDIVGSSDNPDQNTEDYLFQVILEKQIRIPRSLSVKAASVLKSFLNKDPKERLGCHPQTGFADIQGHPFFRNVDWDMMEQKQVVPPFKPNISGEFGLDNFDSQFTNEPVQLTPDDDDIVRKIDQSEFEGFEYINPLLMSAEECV

| SMILES | Ambit profiling: WEE2 [1] | Ambit profiling: PKAC-beta [2] | Ambit profiling: DDR1 [5] | Ambit profiling: MKNK1 [6] | Ambit profiling: NEK11 [7] | Ambit profiling: JAK1(JH1domain-catalytic) [8] | Ambit profiling: JAK1(JH2domain-pseudokinase) [8] | Ambit profiling: MAP3K3 [9] | Ambit profiling: MARK1 [10] | Ambit profiling: CAMK1G [11] | Ambit profiling: CAMKK2 [12] | Ambit profiling: PRKCI [13] | Ambit profiling: PRKCD [14] | Ambit profiling: CDKL3 [15] | Ambit profiling: MAP4K3 [16] | Ambit profiling: TSSK1B [17] | Ambit profiling: ROCK2 [18] | Ambit profiling: EPHB3 [19] | Ambit profiling: MLK1 [20] | Ambit profiling: NLK [21] | also measured |
| --- | --- | --- | --- | --- | --- | --- | --- | --- | --- | --- | --- | --- | --- | --- | --- | --- | --- | --- | --- | --- | --- |
| COc1c2c(nn1C)CN(C(C)C)C(=O)CCCn1cc(c(C(F)(F)F)n1)-c1c[nH]c3ncc-2cc13 [Compound 50, (Z)-5-isopropyl-35-methoxy-31-methyl-13-(trifluoromethyl)-11H,21H,31H-5-aza-2(3,5)-pyrrolo[2,3-b]pyridina-1(4,1),3(4,3)-dipyrazolacyclononaphan-6-one] | 73 | 45 | 0.35 | 83 | 94 | 100 | 81 | 0.3 | 39 | 54 | 5.8 | 42 | 43 | 80 | 16 | 43 | 67 | 62 | 28 | 84 | Ambit profiling: KIT(L576P) [3]: 4; Ambit profiling: GCN2(Kin.Dom.2, S808G) [4]: 100; Ambit profiling: FLT3(D835V) [22]: 0; Ambit profiling: FGFR3(G697C) [23]: 6.4; Ambit profiling: EGFR(G719C) [24]: 51; Ambit profiling: BRAF [25]: 87; Ambit profiling: PRKX [26]: 100; Ambit profiling: NEK10 [27]: 87; Ambit profiling: CHEK2 [28]: 80; Ambit profiling: ACVR1 [29]: 14; Ambit profiling: RSK4(Kin.Dom.1-N-terminal) [30]: 2.3; Ambit profiling: RSK4(Kin.Dom.2-C-terminal) [30]: 74; Ambit profiling: PAK1 [31]: 76 |
| CC(C)N1Cc2nn(C)cc2-c2cnc3[nH]cc(c3c2)-c2cn(nc2C(F)(F)F)CCCC1=O [Compound 45, (Z)-5-isopropyl-31-methyl-13-(trifluoromethyl)-11H,21H,31H-5-aza-2(3,5)-pyrrolo[2,3-b]pyridina-1(4,1),3(4,3)-dipyrazolacyclononaphan-6-one] | 100 | 54 | 0.15 | 100 | 100 | 36 | 65 | 0.35 | 33 | 88 | 5.8 | 9.1 | 71 | 100 | 18 | 83 | 100 | 97 | 46 | 84 | Ambit profiling: KIT(L576P) ([3]; compound 1 uM): 4.5; Ambit profiling: GCN2(Kin.Dom.2, S808G) ([4]; compound 1 uM): 100; Ambit profiling: FLT3(D835V) ([22]; compound 1 uM): 0; Ambit profiling: FGFR3(G697C) ([23]; compound 1 uM): 4.5; Ambit profiling: EGFR(G719C) ([24]; compound 1 uM): 59; Ambit profiling: BRAF [25]: 100; Ambit profiling: PRKX [26]: 100; Ambit profiling: NEK10 [27]: 97; Ambit profiling: CHEK2 [28]: 82; Ambit profiling: ACVR1 [29]: 18; Ambit profiling: RSK4(Kin.Dom.1-N-terminal) [30]: 2.6; Ambit profiling: RSK4(Kin.Dom.2-C-terminal) [30]: 95; Ambit profiling: PAK1 [31]: 69 |
